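Protocol summary: plate cells (96-well), add compound at 5 concentrations, incubate 48 h, interpolate endpoints linearly. GI50 = concentration required for 50% inhibition of growth.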 Calls of active or inactive are those of the source. No stated cut-off is given here; in the data, active = GI50 up to about 1.1 µM and inactive = higher.
Assays:
Test in all cases: inhibition of tumour cell growth, NCI panel, 48 h
U-251 = system: U-251
SF-268 = system: SF-268
KM12 = system: KM12
DMS-114 = system: DMS-114
UACC-257 = system: UACC-257
EKVX = system: EKVX
COLO 205 = system: COLO 205
CCRF-CEM = system: CCRF-CEM
HL-60 = system: HL-60
SK-OV-3 = system: SK-OV-3
UO-31 = system: UO-31
HOP-18 = system: HOP-18
KM-20L2 = system: KM-20L2
NCI-H522 = system: NCI-H522
M19-MEL = system: M19-MEL
HOP-62 = system: HOP-62
A549 = system: A549
SK-MEL-5 = system: SK-MEL-5
A498 = system: A498
IGROV-1 = system: IGROV-1
SK-MEL-2 = system: SK-MEL-2
Malme-3M = system: Malme-3M
HT-29 = system: HT-29
ACHN = system: ACHN
SN12C = system: SN12C
SNB-78 = system: SNB-78
MOLT-4 = system: MOLT-4
786-0 = system: 786-0
LXFL 529 = system: LXFL 529
OVCAR-8 = system: OVCAR-8
UACC-62 = system: UACC-62
LOX IMVI = system: LOX IMVI
OVCAR-4 = system: OVCAR-4
DLD-1 = system: DLD-1
OVCAR-3 = system: OVCAR-3
RXF 631 = system: RXF 631
SF-295 = system: SF-295
HCT-15 = system: HCT-15
SF-539 = system: SF-539
DMS-273 = system: DMS-273
M14 = system: M14
NCI-H226 = system: NCI-H226
NCI-H460 = system: NCI-H460
OVCAR-5 = system: OVCAR-5
CAKI-1 = system: CAKI-1
TK-10 = system: TK-10
K562 = system: K562
SW-620 = system: SW-620
HCT-116 = system: HCT-116
RPMI-8226 = system: RPMI-8226
HOP-92 = system: HOP-92
SK-MEL-28 = system: SK-MEL-28
SNB-19 = system: SNB-19
SNB-75 = system: SNB-75
NCI-H23 = system: NCI-H23
HCC 2998 = system: HCC 2998
SR = system: SR
RXF 393 = system: RXF 393

`N/N=C1\C(=O)N(c2ccc(Cl)cc2Cl)C(=O)C(=O)C1c1nc2ccccc2o1` (stereo unspecified) was tested, and the GI50 (U-251) was > 100 µM (inactive), the GI50 (SF-268) was > 100 µM (inactive) and the GI50 (KM12) was > 100 µM (inactive). For the same compound, the GI50 (DMS-114) was > 100 µM (inactive), the GI50 (UACC-257) was > 100 µM (inactive) and the GI50 (EKVX) was > 100 µM (inactive). The GI50 (COLO 205) was > 100 µM (inactive), the GI50 (CCRF-CEM) was 57.5 µM (inactive) and the GI50 (HL-60) was > 100 µM (inactive). The GI50 (SK-OV-3) was > 100 µM (inactive), the GI50 (UO-31) was 48.3 µM (inactive) and the GI50 (HOP-18) was > 100 µM (inactive). For the same compound, the GI50 (KM-20L2) was > 100 µM (inactive), the GI50 (NCI-H522) was > 100 µM (inactive) and the GI50 (M19-MEL) was > 100 µM (inactive). The GI50 (HOP-62) was > 100 µM (inactive), the GI50 (A549) was > 100 µM (inactive) and the GI50 (SK-MEL-5) was > 100 µM (inactive). The GI50 (A498) was > 100 µM (inactive), the GI50 (IGROV-1) was > 100 µM (inactive) and the GI50 (SK-MEL-2) was 95.7 µM (inactive). For the same compound, the GI50 (Malme-3M) was > 100 µM (inactive), the GI50 (HT-29) was > 100 µM (inactive) and the GI50 (ACHN) was > 100 µM (inactive). The GI50 (SN12C) was > 100 µM (inactive), the GI50 (SNB-78) was > 100 µM (inactive) and the GI50 (MOLT-4) was > 100 µM (inactive). For the same compound, the GI50 (786-0) was > 100 µM (inactive), the GI50 (LXFL 529) was > 100 µM (inactive) and the GI50 (OVCAR-8) was > 100 µM (inactive). For the same compound, the GI50 (UACC-62) was 11.4 µM (inactive), the GI50 (LOX IMVI) was 97.7 µM (inactive) and the GI50 (OVCAR-4) was > 100 µM (inactive). The GI50 (DLD-1) was > 100 µM (inactive), the GI50 (OVCAR-3) was > 100 µM (inactive) and the GI50 (RXF 631) was > 100 µM (inactive). For the same compound, the GI50 (SF-295) was > 100 µM (inactive), the GI50 (HCT-15) was over 100 µM and the GI50 (SF-539) was > 100 µM (inactive). For the same compound, the GI50 (DMS-273) was > 100 µM (inactive), the GI50 (M14) was > 100 µM (inactive) and the GI50 (NCI-H226) was > 100 µM (inactive). For the same compound, the GI50 (NCI-H460) was > 100 µM (inactive), the GI50 (OVCAR-5) was > 100 µM (inactive) and the GI50 (CAKI-1) was > 100 µM (inactive). The GI50 (TK-10) was > 100 µM (inactive), the GI50 (K562) was > 100 µM (inactive) and the GI50 (SW-620) was > 100 µM (inactive). For the same compound, the GI50 (HCT-116) was > 100 µM (inactive), the GI50 (RPMI-8226) was > 100 µM (inactive) and the GI50 (HOP-92) was > 100 µM (inactive). The GI50 (SK-MEL-28) was > 100 µM (inactive), the GI50 (SNB-19) was > 100 µM (inactive) and the GI50 (SNB-75) was > 100 µM (inactive). For the same compound, the GI50 (NCI-H23) was > 100 µM (inactive) and the GI50 (HCC 2998) was > 100 µM (inactive).
For `N#CCC(=O)N/N=C1/C(=O)NC(=O)C(=O)C1c1nc2ccccc2s1` (stereo unspecified), the GI50 (U-251) was > 100 µM (inactive), the GI50 (SF-268) was > 100 µM (inactive) and the GI50 (SR) was 71.8 µM (inactive). The GI50 (DMS-114) was > 100 µM (inactive), the GI50 (UACC-257) was > 100 µM (inactive) and the GI50 (EKVX) was > 100 µM (inactive). The GI50 (COLO 205) was > 100 µM (inactive), the GI50 (CCRF-CEM) was > 100 µM (inactive) and the GI50 (SK-OV-3) was > 100 µM (inactive). The GI50 (UO-31) was > 100 µM (inactive), the GI50 (HOP-18) was > 100 µM (inactive) and the GI50 (RXF 393) was > 100 µM (inactive). The GI50 (KM-20L2) was > 100 µM (inactive), the GI50 (NCI-H522) was > 100 µM (inactive) and the GI50 (M19-MEL) was > 100 µM (inactive). For the same compound, the GI50 (HOP-62) was > 100 µM (inactive), the GI50 (A549) was > 100 µM (inactive) and the GI50 (SK-MEL-5) was > 100 µM (inactive). For the same compound, the GI50 (A498) was > 100 µM (inactive), the GI50 (IGROV-1) was > 100 µM (inactive) and the GI50 (SK-MEL-2) was > 100 µM (inactive). The GI50 (Malme-3M) was > 100 µM (inactive), the GI50 (HT-29) was > 100 µM (inactive) and the GI50 (ACHN) was > 100 µM (inactive). The GI50 (SN12C) was > 100 µM (inactive), the GI50 (SNB-78) was > 100 µM (inactive) and the GI50 (MOLT-4) was > 100 µM (inactive). The GI50 (786-0) was > 100 µM (inactive), the GI50 (LXFL 529) was > 100 µM (inactive) and the GI50 (OVCAR-8) was > 100 µM (inactive). For the same compound, the GI50 (UACC-62) was > 100 µM (inactive), the GI50 (LOX IMVI) was > 100 µM (inactive) and the GI50 (OVCAR-4) was > 100 µM (inactive). For the same compound, the GI50 (DLD-1) was > 100 µM (inactive), the GI50 (OVCAR-3) was > 100 µM (inactive) and the GI50 (RXF 631) was > 100 µM (inactive). The GI50 (SF-295) was > 100 µM (inactive), the GI50 (HCT-15) was over 100 µM and the GI50 (SF-539) was > 100 µM (inactive). For the same compound, the GI50 (DMS-273) was > 100 µM (inactive), the GI50 (M14) was > 100 µM (inactive) and the GI50 (NCI-H226) was 50.1 µM (inactive). The GI50 (OVCAR-5) was > 100 µM (inactive), the GI50 (CAKI-1) was > 100 µM (inactive) and the GI50 (TK-10) was > 100 µM (inactive). The GI50 (K562) was > 100 µM (inactive), the GI50 (SW-620) was > 100 µM (inactive) and the GI50 (HCT-116) was > 100 µM (inactive). For the same compound, the GI50 (RPMI-8226) was > 100 µM (inactive), the GI50 (HOP-92) was 67.5 µM (inactive) and the GI50 (SK-MEL-28) was > 100 µM (inactive). The GI50 (SNB-19) was > 100 µM (inactive), the GI50 (SNB-75) was > 100 µM (inactive) and the GI50 (NCI-H23) was > 100 µM (inactive). For the same compound, the GI50 (HCC 2998) was > 100 µM (inactive).

— ChEMBL document CHEMBL1201862, “PubChem BioAssay data set” (2004)
